Measured values taken from publication PMC9504583, “Stability Study, Quantification Method and Pharmacokinetics Investigation of a Coumarin–Monoterpene Conjugate Possessing Antiviral Properties against Respiratory Syncytial Virus” (Pharmaceuticals, 2022).
Where two headings read alike, the source gives them in different places.

Columns and labels:
RSV serotype A = tested on: RSV serotype A; set-up: method as in PMID 34946573; details: cited from earlier work
[1] = pharmacokinetics study of K-142 after oral administration to mice; format: in vivo, CD1 mice; details: 20 mg/kg
Method: The method has been applied to a pharmacokinetic study of the agent K-142 in mice (n = 8). The substance was administered to the animals orally at a dose of 20 mg/kg. After drug administration, blood samples were taken from the tail vein and treated with the precipitating solution, and the samples were analyzed.
The maximum values of concentrations observed for animals vary in the range from 15 to 90 ng/mL, and the average value is about 46 ng/mL. Thereafter, the content of the substance in the blood gradually decreases, and almost complete excretion is achieved in about 2 h. As the average concentration of K-142 in mice blood was c.a. 3.1 ng/mL, which is below LLOQ, this time point was not included in calculation of pharmacokinetics parameters and is shown in Figure 5 just for information. Due to the same reason, the data on the concentrations of the agent K-142 in animal #8 were also not taken into account for the calculation. The averaged values of pharmacokinetic parameters were calculated for a period of time from 0 to 60 min and are given in Table 1.
Experiments were performed on adult CD1 mice (n = 8) weighing 30–40 g. Animals were obtained from the animal facility of the Institute of Cytology and Genetics SB RAS and kept under standard conditions with free access to food and water. All experiments were performed in accordance with the “European Convention for the Protection of Vertebrate Animals Used for Experimental and other Scientific Purposes”, 1986.
Pharmacokinetics of the agent K-142 was studied at a dose of 20 mg/kg after its oral administration. To prepare the dosage form, a weight of the substance was mixed with c.a. 20 µL of Tween-80 followed by the dilution of the sample with physiological saline to a volume of 0.2 mL per 10 g of mouse bodyweight. Blood aliquots (10 µL) were taken in duplicate from the animal tail vein 10, 20, 30, 45 min, 1, 1.5, 2, 2.5 3, 4, 5 and 6 h after substance administration. The samples were mixed with the precipitation solution and processed according to the protocol and analyzed. Pharmacokinetic parameters were calculated using PKSolver and are presented as mean ± standard error of mean (SEM).

RSV serotype B = tested on: RSV serotype B; set-up: method as in PMID 34946573; details: cited from earlier work
[2] = stability study in whole mice blood in vitro; format: in vitro ADME; details: spike 1000 ng/mL, aliquots 5-240 min, peak area
Method: To study the stability of K-142 in whole blood of mice, a spike containing the substance at the concentration of 1000 ng/mL was prepared. After preparation, the spike was placed on a shaker and shaken throughout the experiment. Aliquots of the spike with a volume of 50 μL were taken after 5, 10, 15, 30, 60, 120, 180 and 240 min, after which the sample was prepared and analyzed, and K-142 peak area in obtained chromatograms was measured.
It can be seen from the chart (Figure S1) showing the K-142 peak area in the chromatogram that no decrease in its concentration happens for at least 4 h.

[3] = set-up: method as in PMID 27420975; details: rats, cited from earlier work
[4] = set-up: method as in PMID 31847686; details: ICR mice, oral, cited from earlier work
[5] = CD1, mouse, whole blood, mean ± SEM, calculated 0-60 min, animal #8 excluded

CC1(C)C2CC=C(COc3ccc4c5c(c(=O)oc4c3)CCCC5)C1C2 (centres unmarked) [K-142]
IC50 (RSV serotype A; RSV serotype A): 5 µM
selectivity index (SI) (RSV serotype A; RSV, serotype not specified for SI): 77
CL ([1]; mean ± SEM, calculated 0-60 min, animal #8 excluded): (1.3 ± 0.2) × 10^−2 (mg/kg)/(ng/mL)/min
time at which maximum concentration is reached ([1]; whole blood): 10 min
time to almost complete excretion ([1]; whole blood): about 2 h
concentration at 2 h ([1]; CD1, mouse, whole blood, below LLOQ (5 ng/mL), not used for PK calculation, read-out: average concentration in mice blood at about 2 h): ~3.1 ng/mL
AUC(0-inf) [1, 5]: 26.2 ng·h/mL
Cmax [1, 5]: 63.4 ± 19.1 ng/mL
half-life [1, 5]: 27.7 ± 5.4 min
MRT inf ([1]; CD1, mouse, whole blood, mean ± SEM, calculated 0-60 min, animal #8 excluded, read-out: MRT0–∞ (converted)): 40.5 min
IC50 (RSV serotype B): 5 µM
time with no decrease in concentration (stability) [2]: at least 4 h

CC(C)=CCC/C(C)=C/COc1ccc2ccc(=O)oc2c1 [auraptene]
Tmax ([3]; oral, 100 mg/kg, plasma): 108.0 ± 25.3 min
maximum concentration in blood plasma ([3]; oral, 100 mg/kg, plasma): 1719 ± 384.3 ng/mL
bioavailability [3]: 8.5%

CC(C)=CCc1c(O)ccc2ccc(=O)oc12 [osthenol]
Cmax ([4]; 5 mg/kg): 66.1 ± 3.2 ng/mL
Tmax ([4]; 5 mg/kg): 36.3 ± 13.8 min
Cmax ([4]; 20 mg/kg): 56.0 ± 29.1 ng/mL
Tmax ([4]; 20 mg/kg): 6.3 ± 1.3 min
bioavailability (in words) ([4]; 5 and 20 mg/kg): very low bioavailability
